Target: T1, human MAP4K4 kinase domain (Homo sapiens, UniProt O95819)
T1 construct: 0.5 nM human MAP4K4 kinase domain (Invitrogen); purchased Invitrogen
Test: MAP4K4 kinase activity, CisBio HTRF Transcreener ADP assay
Assay type: biochemical
Conditions: IC50 category; ATP at Km (10 μM), 0.5 nM kinase domain, 2 h; read-out: MAP4K4
Text: Compounds of the present invention were screened for their inhibitory activity against MAP4K4, versus selected off-target hits found with early members of this chemical series. MAP4K4 kinase activity was monitored using the CisBio HTRF Transcreener ADP assay, a competitive immunoassay with a reproducible Z′>0.6. In the detection step, endogenous ADP and d2-labeled ADP compete for binding an anti-ADP monoclonal antibody labelled with Eu^3+ cryptate. A ratiometric fluorescent read-out is used at 665 and 620 nm. Reactions were performed in the presence of 1% DMSO with ATP added at Km (10 μM), 0.5 nM human MAP4K4 kinase domain (Invitrogen), 1 μM biotin-myelin basic protein as substrate (Invitrogen), and extension of reaction time to 2 h. Assays were run in Greiner low volume plates with a final reaction volume of 10 μl. The MAP4K4 inhibition data are provided in Table 41 below for selected compounds of the present invention. The data has been categorised based on the IC50 value of the compound as “A”, “B” or “C”. IC50: A≤100 nM; 100 nM<B≤1 μM; 1 μM<C; nd=not determined.

T1 sequence (O95819 25-289 limits assumed): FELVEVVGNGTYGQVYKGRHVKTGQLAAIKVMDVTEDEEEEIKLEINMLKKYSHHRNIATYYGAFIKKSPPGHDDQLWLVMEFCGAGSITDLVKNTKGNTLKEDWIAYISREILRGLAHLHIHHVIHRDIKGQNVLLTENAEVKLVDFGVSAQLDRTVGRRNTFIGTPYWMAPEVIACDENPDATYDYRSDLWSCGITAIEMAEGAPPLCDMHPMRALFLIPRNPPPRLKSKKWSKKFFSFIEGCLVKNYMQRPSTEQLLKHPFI

| IC50 [nM] | Structure (SMILES) |
| --- | --- |
| ≤ 100 | O=c1[nH]cnc2c1c(-c1ccc(NCCO)nc1)cn2-c1ccccc1 [Ex-48, 5-[6-(2-Hydroxy-ethylamino)-pyridin-3-yl]-7-phenyl-3,7-dihydro-pyrrolo[2,3-d]pyrimidin-4-one] |
| ≤ 100 | COc1cc(-c2cn(-c3ccccc3)c3nc[nH]c(=O)c23)ccn1 [Ex-17] |
| ≤ 100 | N#Cc1cc(-c2cn(-c3ccccc3)c3nc[nH]c(=O)c23)cnc1N1CC[C@@H](O)C1 [Ex-40] |
| 100 to 1000 | COCCNc1ccc(-c2cn(-c3cccnc3)c3nc[nH]c(=O)c23)cn1 [Ex-39] |
| ≤ 100 | N#Cc1cc(-c2cn(-c3ccccc3)c3nc[nH]c(=O)c23)cnc1N1CC[C@H](O)C1 [Ex-41] |
| ≤ 100 | COCCn1cc(-c2cn(-c3ccccc3)c3nc[nH]c(=O)c23)cn1 [Ex-62] |
| 100 to 1000 | CC(C)(O)CCOc1ccc(-c2cn(-c3cncc(F)c3)c3nc[nH]c(=O)c23)cc1 [Ex-84] |
| 100 to 1000 | Cc1cc(-c2cn(-c3ccccc3)c3c(=O)[nH]cnc23)ccn1 [Ex-130] |
| ≤ 100 | Nc1ccc(-c2cn(-c3ccccc3)c3nc[nH]c(=O)c23)cn1 [Ex-9] |
| > 1000 | COc1ccc(-c2cn(-c3ccccc3)c3nc[nH]c(=O)c23)nn1 [Ex-104, 5-(6-Methoxy-pyridazin-3-yl)-7-phenyl-3,7-dihydro-pyrrolo[2,3-d]pyrimidin-4-one] |
| 100 to 1000 | O=c1[nH]cnc2c1c(-c1ccccc1)cn2-c1cccnc1 [Ex-1, 5-Phenyl-7-pyridin-3-yl-3,7-dihydro-pyrrolo[2,3-d]pyrimidin-4-one] |
| ≤ 100 | CC(C)(O)CCOc1ccc(-c2cn(-c3ccccc3)c3nc[nH]c(=O)c23)cn1 [Ex-75] |
| ≤ 100 | COc1ccc(-c2cn(-c3ccccc3)c3nc[nH]c(=O)c23)cn1 [Ex-18] |
| ≤ 100 | CC(=O)NC1CC(n2cc(-c3cn(-c4ccccc4)c4nc[nH]c(=O)c34)cn2)C1 (centres unmarked) [Ex-16] |
| > 1000 | Cc1noc(C)c1-c1cn(-c2ccccc2)c2nc[nH]c(=O)c12 [Ex-7] |
| ≤ 100 | CC(C)(O)CCOc1ccc(-c2cn(-c3cccnc3)c3nc[nH]c(=O)c23)c(F)c1 [Ex-72] |
| ≤ 100 | O=c1[nH]cnc2c1c(-c1cccnc1)cn2-c1ccccc1 [Ex-5] |
| ≤ 100 | COCCNc1ccc(-c2cn(-c3ccccc3)c3nc[nH]c(=O)c23)cn1 [Ex-38] |
| 100 to 1000 | COc1cnc(-c2cn(-c3ccccc3)c3nc[nH]c(=O)c23)cn1 [Ex-107] |
| 100 to 1000 | O=c1[nH]cnc2c1c(-c1cnn(C3CNC3)c1)cn2-c1ccccc1 [Ex-108, 5-(1-Azetidin-3-yl-1H-pyrazol-4-yl)-7-phenyl-3,7-dihydro-pyrrolo[2,3-d]pyrimidin-4-one] |
| ≤ 100 | CC(=O)N1CC(n2cc(-c3cn(-c4ccccc4)c4nc[nH]c(=O)c34)cn2)C1 [Ex-60] |
| > 1000 | Cc1ccc(-c2cn(-c3ccccc3)c3c(=O)[nH]cnc23)cn1 [Ex-131] |
| 100 to 1000 | CN(C)CCCOc1ccc(-c2cn(-c3ccccc3)c3c(=O)[nH]cnc23)cn1 [Ex-114, 7-[6-(3-Dimethylamino-propoxy)-pyridin-3-yl]-5-phenyl-3,5-dihydro-pyrrolo[3,2-d]pyrimidin-4-one] |
| ≤ 100 | CC(C)(O)CCNc1ccc(-c2cn(-c3ccccc3)c3nc[nH]c(=O)c23)cn1 [Ex-94, 5-[6-[(3-hydroxy-3-methyl-butyl)amino]-3-pyridyl]-7-phenyl-3H-pyrrolo[2,3-d]pyrimidin-4-one] |
| 100 to 1000 | Cc1cc(-n2cc(-c3ccc(OCCC(C)(C)O)cc3)c3c(=O)[nH]cnc32)ccn1 [Ex-82] |
| > 1000 | Cn1ccc(-c2cn(-c3ccccc3)c3nc[nH]c(=O)c23)n1 [Ex-25] |
| ≤ 100 | COC(=O)Cn1cc(-c2cn(-c3ccccc3)c3nc[nH]c(=O)c23)cn1 [Ex-21] |
| ≤ 100 | O=c1[nH]cnc2c1c(-c1cnn(Cc3ccccc3)c1)cn2-c1ccccc1 [Ex-23] |

More lines, now with the values behind:

| Structure (SMILES) | IC50 [nM] |
| --- | --- |
| O=c1[nH]cnc2c(-c3ccccc3)cn(-c3cncc(F)c3)c12 [Ex-44] | ≤ 100 |
| COCCNc1ncc(-c2cn(-c3cccc(F)c3)c3nc[nH]c(=O)c23)cn1 [Ex-31] | ≤ 100 |
| Nc1ncccc1-c1cn(-c2ccccc2)c2c(=O)[nH]cnc12 [Ex-126] | > 1000 |
| O=c1[nH]cnc2c1c(-c1ccc(OCC3(CO)COC3)cc1)cn2-c1ccncc1 [Ex-76] | ≤ 100 |
| O=C(C1CC1)N1CC(n2cc(-c3cn(-c4cccc(F)c4)c4nc[nH]c(=O)c34)cn2)C1 [Ex-15] | ≤ 100 |
| O=C(C1CC1)N1CC(n2cc(-c3cn(-c4cccnc4)c4nc[nH]c(=O)c34)cn2)C1 [Ex-36] | 100 to 1000 |
| COCCOc1ccc(-c2cn(-c3cncc(F)c3)c3nc[nH]c(=O)c23)cc1 [Ex-85] | ≤ 100 |
| Cn1cnc2cccc(-c3cn(-c4ccccc4)c4c(=O)[nH]cnc34)c21 [Ex-129] | > 1000 |
| O=c1[nH]cnc2c1c(-c1ccc(O[C@@H]3CO[C@@H]4[C@H]3OC[C@@H]4O)cc1)cn2-c1cccnc1 [Ex-80] | ≤ 100 |
| O=c1[nH]cnc2c1c(-c1cnn(CCO)c1)cn2-c1cccc(F)c1 [Ex-59] | ≤ 100 |
| Cn1ccc(-c2cn(-c3ccccc3)c3c(=O)[nH]cnc23)n1 [Ex-122] | > 1000 |
| CC(C)(O)CCOc1ccc(-c2cn(-c3cccnc3)c3ncn(COP(=O)(O)O)c(=O)c23)cc1 [Ex-102, (5-(4-(3-hydroxy-3-methylbutoxy)phenyl)-4-oxo-7-(pyridin-3-yl)-4,7-dihydro-3H-pyrrolo[2,3-d]pyrimidin-3-yl)methyl dihydrogen phosphate] | > 1000 |
| CC(=O)N1CC(n2cc(-c3cn(-c4cccnc4)c4nc[nH]c(=O)c34)cn2)C1 [Ex-35] | 100 to 1000 |
| O=c1[nH]cnc2c1c(-c1ccc(OCCCN3CCOCC3)cc1)cn2-c1cccnc1 [Ex-42] | ≤ 100 |
| CC(=O)OCCn1cc(-c2cn(-c3ccc(F)cc3)c3nc[nH]c(=O)c23)cn1 [Ex-47, 2-(4-(7-(4-fluorophenyl)-4-oxo-4,7-dihydro-3H-pyrrolo[2,3-d]pyrimidin-5-yl)-1H-pyrazol-1-yl)ethyl Acetate] | 100 to 1000 |
| CC(=O)N1CC(n2cc(-c3cn(-c4ccc(F)cc4)c4nc[nH]c(=O)c34)cn2)C1 [Ex-3, 5-[1-(1-Acetyl-azetidin-3-yl)-1H-pyrazol-4-yl]-7-(4-fluoro-phenyl)-3,7-dihydro-pyrrolo[2,3-d]pyrimidin-4-one] | 100 to 1000 |
| O=c1[nH]cnc2c(-c3cncnc3)cn(-c3ccccc3)c12 [Ex-115] | > 1000 |
| O=c1[nH]cnc2c(-c3cccc4cn[nH]c34)cn(-c3ccccc3)c12 [Ex-117] | 100 to 1000 |
| COCCn1cc(-c2cn(-c3cccc(F)c3)c3nc[nH]c(=O)c23)cn1 [Ex-20] | ≤ 100 |
| O=c1[nH]cnc2c(-c3ccnnc3)cn(-c3ccccc3)c12 [Ex-116] | 100 to 1000 |
| COC(COc1ccc(-c2cn(-c3cccnc3)c3nc[nH]c(=O)c23)cc1)CN1CCOCC1 (centres unmarked) [Ex-34] | ≤ 100 |
| O=c1[nH]cnc2c1c(-c1cnc(N3CC(O)C3)nc1)cn2-c1cccnc1 [Ex-37] | > 1000 |
| CC(=O)N1CC(n2cc(-c3cn(-c4cccc(F)c4)c4nc[nH]c(=O)c34)cn2)C1 [Ex-11] | ≤ 100 |
| CC(C)(O)CCOc1ccc(-c2cn(-c3ccc(N)nc3)c3nc[nH]c(=O)c23)cc1 [Ex-96, 7-(6-aminopyridin-3-yl)-5-(4-(3-hydroxy-3-methylbutoxy)phenyl)-3,7-dihydro-4H-pyrrolo[2,3-d]pyrimidin-4-one] | ≤ 100 |
| COCCn1cc(-c2cn(-c3cccnc3)c3nc[nH]c(=O)c23)cn1 [Ex-19] | 100 to 1000 |

Reference: US12247045B2, “MAP4K4 inhibitors” (Imperial College Innovations Limited, priority 2018, dated 2025)
